Laboratory results reported in patent US20160000777A1, “METHODS OF USING HISTAMINE RECEPTOR AGONISTS AND ANTAGONISTS” (UNIVERSITY OF ROCHESTER, priority 2013, published 2016).

Key:
[1] = test system: pro-Filaggrin (pro-FLG); details: FIG. 6
Experimental: Human keratinocytes were isolated from neonatal foreskin as previously described (Poumay et al., “Basal Detachment of the Epidermis Using Dispase: Tissue Spatial Organization and Fate of Integrin alpha 6 beta 4 and Hemidesmosomes,” J Invest Dermatol 102:111-7 (1994), which is hereby incorporated by reference in its entirety). PHK were cultured in Keratinocyte-SFM (Invitrogen/Gibco, Grand Island, N.Y.) with 5 ng/ml human recombinant Epidermal Growth Factor 1-53 (EGF 1-53), 50 μg/ml Bovine Pituitary Extract (BEP), 1% Pen/Strep, and 0.2% Amphotericin B (Invitrogen/Gibco). To induce terminal differentiation PHK were grown in DMEM (Invitrogen/Gibco) with 1% Pen/Strep and 0.2% Amphotericin B (Invitrogen/Gibco). Where it is indicated, 10% heat-inactivated bovine serum (Invitrogen) was added to the differentiation media. […] The protein concentration of all samples was determined by BCA (Pierce). […] TJ integrity was assessed by trans-epithelial electrical resistance (TEER) and paracellular fluorescein flux (permeability). […] Keratinocyte differentiation was assessed by examining filaggrin, loricrin and keratin 10 expression by Western blot. Expression of HRs were evaluated by qPCR in skin biopsies taken from lesional and nonlesional sites in AD subjects (n=6-8) and non-atopics (n=10).

[2] = test system: human skin explant; details: ex-vivo epidermal explants, histamine 100 μM, 24 hr, P<0.05, n=3
Experimental: Briefly, TEER was measured using an EVOMX voltohmmeter (World Precision Instruments, Sarasota, Fla.). To evaluate the paracellular flux of PHK, 0.02% Fluorescein (FITC) Sodium (Fluka, St. Louis, Mo.) in PBS (Invitrogen/Gibco) was added to the upper chamber. Samples were collected from the lower chamber after 30 minutes incubation for PHK culture or 10 and 20 minutes for skin explant. For each experiment paracellular flux was normalized to an empty filter.
Skin samples were mounted on filter supports (Whatman Nuclepore Track-Etch Membrane; GE Healthcare Biosciences, Pittsburgh, Pa.) with the epidermal side oriented upward, and sandwiched between two sterile custom made Plexiglas discs with an opening of 3 mm and placed in modified Snapwell™ chambers (Corning, Corning, N.Y., USA). Samples were submerged in DMEM media and kept at 37° C., 5% CO2 for 30 min. Fresh media with histamine (10 or 100 μM) or media alone were then added to both sides of the transwell. TEER and Paracellular flux of fluorescein of skin explant were measured at 24 hr.

[3] = test system: primary human keratinocytes (PHK); assay: Paracellular fluorescein flux (permeability) in cultured primary human keratinocytes; type: cell-based; details: histamine 100 μM, P<0.001, n=9, 96 hrs, FIG. 2B
Experimental: (§1) PHK were cultured in Keratinocyte-SFM (Invitrogen/Gibco, Grand Island, N.Y.) with 5 ng/ml human recombinant Epidermal Growth Factor 1-53 (EGF 1-53), 50 μg/ml Bovine Pituitary Extract (BEP), 1% Pen/Strep, and 0.2% Amphotericin B (Invitrogen/Gibco). To induce terminal differentiation PHK were grown in DMEM (Invitrogen/Gibco) with 1% Pen/Strep and 0.2% Amphotericin B (Invitrogen/Gibco). Where it is indicated, 10% heat-inactivated bovine serum (Invitrogen) was added to the differentiation media. […] Briefly, TEER was measured using an EVOMX voltohmmeter (World Precision Instruments, Sarasota, Fla.). To evaluate the paracellular flux of PHK, 0.02% Fluorescein (FITC) Sodium (Fluka, St. Louis, Mo.) in PBS (Invitrogen/Gibco) was added to the upper chamber. Samples were collected from the lower chamber after 30 minutes incubation for PHK culture or 10 and 20 minutes for skin explant. For each experiment paracellular flux was normalized to an empty filter. […] TJ integrity was assessed by trans-epithelial electrical resistance (TEER) and paracellular fluorescein flux (permeability).

[4] = test system: human keratinocytes; details: cited from earlier work
[5] = test system: airway epithelial cells; details: cited from earlier work
[6] = test system: ZO-1; details: nasal and retinal epithelial cells, cited from earlier work
[7] = test system: primary human keratinocytes (PHK); assay: Transepithelial electric resistance (TEER) in cultured primary human keratinocytes; type: cell-based
Experimental: as §1

O=C(O)COCCN1CCN(C(c2ccccc2)c2ccc(Cl)cc2)CC1 (centres unmarked) [Cetirizine]
Prevention of histamine-mediated reduction of pro-FLG expression ([1]; PHK co-treated with 100 μM histamine and 10 μM Cetirizine): prevented

NCCc1c[nH]cn1 [histamine]
Fluorescein permeability flux, Fold of control (FOC) ([2]; 20 minutes time point, FIG. 3B): 1.3 fold | TEER, Fold of control (FOC) ([2]; FIG. 3A): 0.7 fold | pro-FLG expression ([1]; PHK at day 5 post differentiation, 100 μM histamine, Western blot, n=4): significantly reduced | Permeability to Fluorescein, Mean Fold of control (FOC) [3]: enhancement of permeability | Expression of stratum corneum and granulosum barrier proteins (e.g. filaggrin, Loricrin, claudin1, occludin) [4]: reduced the expression | TJ paracellular permeability [5]: enhance TJ paracellular permeability | Expression of ZO-1 [6]: reduce the expression | TEER peak ([7]; PHK differentiated in DMEM serum free media, histamine 100 μM, 96 hours post-stimulation, n=4, FIG. 2C): significantly reduced TEER peak | TEER, Mean Area under the curve (AUC) ([7]; PHK, histamine 10 and 100 μM, P<0.001, n=10, AUC of 0-120 h time points, FIG. 2A): dose dependent reduction of TEER

COc1ccc(CN(CCN(C)C)c2ccccn2)cc1 [mepyriamine]
Abrogation of histamine effect on ZO-1 expression ([6]; pretreatment with antagonist): at least partially abrogated
